From patent publication US20120053076A1, “METHODS FOR IDENTIFICATION” (Cambridge Enterprise Limited, priority 2009, published 2012)

What was measured:
THP-1 cells = assay: MCP-1 induced THP-1 cell migration, Transwell assay; format: cell-based, human
Procedure: Leukocyte migration was measured using the 96-well format micro Transwell® assay system from Neuroprobe (Gaithersburg, Md., USA). In principle, this assay consists of two chambers separated by a porous membrane. The chemoattractant is placed in the lower compartment and the cells are placed in the upper compartment.
The method was performed essentially as previously described (Reckless & Grainger (1999) Biochem. J. 340:803-11).
First, the cell suspension to be placed in the upper compartment was prepared. The THP-1 cells were pelleted by centrifugation (770×g; 4 mins) and washed with Geys Balanced Salt Solution with 1 mg/ml BSA (GBSS+BSA). This wash was then repeated, and the cells re-pelleted before being resuspended in a small volume of GBSS+BSA for counting, for example using a standard haemocytometer.
The volume of GBSS+BSA was then adjusted depending on the number of cells present so that the cells were at final density of 4.45×10^6 cells per ml of GBSS+BSA. This ensured that there were 100,000 THP-1 cells in each 25 μl of the solution to be placed in the upper chamber of the plate.
The suspension of THP-1 cells at 4.45×10^6 cells/ml was divided into three pots. […] To the second pot, the BSCI was added at the same concentration as in the first pot, but additionally the sstr2 antagonist was also added (for example BIM 23454 [Tulipano et al. (2002) 143:1218-24] or BIM 23627 were added at 66 nM final concentration from a stock solution in GBSS). To the third pot, GBSS+BSA plus vehicle as appropriate was added so that the volumes in three pots are equal, acting as a control.
Next, the chemoattractant solution to be placed in the lower compartment was prepared. MCP-1 was diluted in GBSS+BSA to give a final concentration of 25 ng/ml (after all additions). Note that, as recommended by Frow et al (Med. Res. Rev. 24:276-98) this is the concentration of MCP-1 which induces maximal migration in this system. This solution was divided into three pots, as for the cell suspension. To one pot, the BSCI was added to the same final concentration as was added to the cell suspension, in the second pot the BSCI and the sstr2 antagonist were both added at the same concentration as previously added to the cell suspension, while to the remaining pot GBSS+BSA plus vehicle as appropriate was added so that the volumes in the three pots were equal.
Once the chemoattractant solutions for the lower wells and cell solutions for the upper chambers were prepared, the migration chamber was assembled. 29 μl of the appropriate chemoattractant solution was placed into the lower well of the chamber. Assays were performed with at least triplicate determinations of each condition. Once all the lower chambers were filled, the porous membrane was applied to the chamber in accordance with the manufacturer's instructions. Finally, 25 μl of the appropriate cell solution was applied to each upper chamber. A plastic lid was placed over the entire apparatus to prevent evaporation.
The assembled chamber was incubated at 37° C., 5% CO2, for 2 hours.
At the end of the incubation, the liquid cell suspension was gently removed from the upper chamber, 20 μl of ice-cold 20 mM EDTA in PBS was added to the upper chamber, and the apparatus was incubated at 4° C. for 15 mins. This procedure caused any cells adhering to the underside of the membrane to fall into the lower chamber.
After this incubation the filter was carefully flushed with GBSS+BSA to wash off the EDTA, and then the filter was removed.
The number of cells migrated into the lower chamber under each condition can then be determined by a number of methods, including direct counting, labelling with fluorescent or radioactive markers or through the use of a vital dye. Typically, we utilised the vital dye MTT.

[1] = system: TNF-alpha production in response to bacterial endotoxin; assay: Sub-lethal endotoxemia model, serum TNF-alpha after LPS; format: in vivo; conditions: mouse, serum 2 hours after LPS
Procedure: We selected the sub-lethal endotoxemia model in mouse, because this has been well characterised in our laboratory (see for example Fox et al. (2002) J. Med. Chem. 45:360-70; Fox et al. (2005) J. Med. Chem. 48:867-74). The extent of systemic inflammation in response to a single intraperitoneal injection of bacterial lipopolysaccharide (LPS) can be estimated by measuring serum TNF-alpha 2 hours post challenge.
Methods: Mice (CD1 strain; adult males; 6 per group) were treated with BSCI (in an appropriate vehicle) or with vehicle alone by an appropriate route. […] Simultaneously, one set of mice at each BSCI concentration received BIM 23627 at […] by sub-cutaneous injection (a treatment condition known to suppress classical sstr2-mediated signalling, such as GH release, in rats; Tulipano et al. (2002) 143:1218-24). […]
After, a further 2 hours, the animals were sacrificed by CO2 asphyxiation, and blood was drawn by cardiac puncture. Serum was prepared by conventional methods, and the level of TNF-alpha in serum was measured using an ELISA (R&D Systems; Murine Quantikine code# MTA00) performed in accordance with the manufacturer's instructions. […]

fetal rat pituicytes = assay: Rat pituicyte GH suppression assay; format: cell-based
Text: Two different assays for “classical” sstr2 functions were adopted: (1) cultured foetal rat pituitary cells secreted growth hormone which is inhibited by sstr2 agonists in a dose-dependent fashion and (2) selected glucose-sensitive sub-clones of the human Panc-1 cell line secrete insulin which is inhibited by sstr2 agonists in a dose-dependent fashion.
Methods: Cultures of fetal rat pituicytes were established exactly as previously described (Murray et al. (2004) J. Clin. Endocrinol. Metab. 89:3027-32) by enzymatic dispersion. After 48 hrs in low glucose DMEM plus 10% FCS, cells in 48 well plates (5×10^4 cells per well) were washed for 4 hrs in serum-free DMEM and then incubated with test agents at various concentrations for a further 24 hrs in serum-free DMEM. At the end of this period, the conditioned medium was harvested, any cell debris removed by centrifugation and assayed for GH using a commercially available ELISA (Linco; cat# EZRMGH-45K) in accordance with the manufacturer's instructions.
Results were reported as the mean±SD, expressed as the fold change from cells in the presence of vehicle only.

[2] = system: rat peripheral blood leukocytes; assay: Rat chemokine-induced PBMC migration assay; format: cell-based; conditions: Table 3

Row | Molecule | Emax (THP-1 cells; Homo sapiens, THP-1, read-out: Human chemokine-induced THP-1 migration assay Max effect) [%] | Inhibition of MCP-1 induced THP-1 cell migration, in words (THP-1 cells; MCP-1 25 ng/ml) | Inhibition of TNF-alpha production in response to endotoxin, in words [1] | Inhibition of GH release, in words (fetal rat pituicytes) | Emax ([2]; Rattus norvegicus, Leukocyte, read-out: Rat chemokine-induced PBMC migration assay Max effect) [%] | Human chemokine-induced THP-1 migration assay Max effect (THP-1 cells; Table 3) [%] | Chemokine-induced THP-1 cell migration assay (“BSCI” target) Max Effect (THP-1 cells; Table 5) [%] | EC50 (fetal rat pituicytes; Table 3, read-out: Rat pituicyte GH suppression assay ED50) [nM] | Rat pituicyte GH suppression assay Max effect (fetal rat pituicytes; Table 3, suppression compared to vehicle) [%] | Rat chemokine-induced PBMC migration assay Max effect [2] [%]
1 | CC(C)(C)C(=O)N[C@H]1CCCNC1=O [Valerolactam, (S)-3-(2′,2′-dimethylpropionoylamino)-tetrahydropyridin-2-one] | 100 | inhibits MCP-1 induced cell migration in a dose-dependent manner | dramatically inhibited | inhibited GH release only at much higher concentrations | 100 |  |  |  |  | 
2 | (S)-3-(2′,2′-dimethyldodecanoyl)amino-caprolactam [BN83250] |  |  | dramatically inhibited | inhibited GH release only at much higher concentrations |  | 100 | 100 | 320 | 63 | 100
